According to patent US20040141912A1, “Method for targeting chemical compounds to cells and pharmaceutical compositions used therein” (priority 2001, published 2004):
“Also recorded” adds a separate entry of the source.

Legend:
Jurkat cells = assay: Fluorescent microscopy of DDL uptake by Jurkat cells induced to undergo apoptosis by anti-Fas antibody; type: cell-based, human
Protocol: FIG. 1: Jurkat cells were treated with anti-Fas antibody (0.1 μg/ml) for three hours. As a result, a marked percentage of the cells became apoptotic (i.e., PLS-activated cells). For subsequent inhibition of PLS, culture was then treated for 30 minutes with EGTA (1 mM) and BAPTA (20 μM), (i.e., PLS-inhibited culture). Both cultures were treated with DDL (1 μM, 2 minutes) and visualized by a fluorescent microscope (Olympus):
Cultured Jurkat cells (human adult T cell leukemia cells) were grown in suspension in RPMI medium (Beit-Haemek, Israel), supplemented with 10% of fetal calf serum (FCS), 4 mM of L-glutamine, 1 mM of sodium pyruvate, 1 mM CaCl2 and antibiotics (100 units/ml penicilin; 100 μg/ml streptomycin and 12.5 units/ml of nystatin). Prior to induction of apoptosis, medium was replaced with HBS buffer (10 mM HEPES; 140 mM NaCl, 1 mM CaCl). Apoptosis was then triggered by treatment with anti-Fas Ab (0.1 μg/ml; 3 hrs).
Such a procedure culminates in accumulation of a large percentage of apoptotic cells within the culture. Culture was then incubated with DDL at a final concentration of 1 μM for 5 minutes, and then taken immediately for fluorescent microscopy [Olympus fluorescent microscope, model IX70, excitation wavelength of 360 nm, emission at 530 nm].
Modulation of PLS activity was achieved by the calcium depletion-repletion procedure (Momchilova, A., et al., 2000). Inhibition of PLS by Ca^2+-deprivation was performed by cell incubation with the extra-and intracellular chelating agents EGTA (Ethylen glycol-bis (β-aminoethyl ether)-N,N,N′-tetraacetic acid, 1 mM) and BAPTA-AM ([1,2-bis(o-Amino-phenoxy) ethane-N,N,N′,N′-tetraacetic acid tetra-(acetoxymethyl) ester, 20 μM, respectively. Such a procedure eliminates any traces of Ca^2+ possibly present either intra- or extra-cellularly. Subsequent to the induction of apoptosis for three hours, cells were subjected to said PLS inhibition for 30 minutes. Cells were then incubated with DDL for 5 minutes, and subjected to fluorescent microscopy.
For re-activation of PLS, the EGTA/BAPTA-treated cells were now treated with CaCl (1 mM) and calcium ionophore A23187 (2 μM, Calbiochem, Darmstadt, Germany), thus elevating ambient Ca^2+ levels.

HeLa S3 cells = assay: Flow-cytometric (FACS) analysis of DDL binding to apoptotic cells in aged HeLa culture; type: cell-based; conditions: HeLa aged 96 h
Protocol: FIG. 2: HeLa cells were allowed to age by incubating the culture for 96 hours without exchange of the growth medium. As a result, a marked percentage of the cells became apoptotic. Cells were then incubated with DDL (1 μM, 2 minutes) under three different conditions: PLS-activation; PLS-inhibition; and reactivation of inhibited-PLS as defined above. Shown is quantitative analysis of fluorescence intensity (geomean) values.
For this purpose, cultured, aged HeLa S3 cells (ATCC CCL-2.2) were grown in Dulbecco's modified Eagle's medium (DMEM), containing CaCl (1.8 mM) and supplemented with 2 mM of L-glutamine; 100 units/ml of penicillin; 100 μg/ml of streptomycin; 12.5 units/ml of nystatin and 10% of fetal calf serum (FCS). Cells were seeded at a density of 5×10^6 cells/plate on a […] culture plates in a volume of 10 ml, and were allowed to age in culture for 96 hours without exchange of the growing medium. Such a procedure culminates in a large percentage of apoptotic cells within the culture. Culture (1×10^7/ml) was then incubated with DDL at a final concentration of 5 μM in HBS for 5 minutes, and taken immediately for FACS analysis for detection of bound DDL, using Becton-Dickinson cell sorter and CellQuest software. Excitation was at 360 nm and emission was measured at 530 nm.
Three different conditions were examined (FIG. 2): PLS-activation by the apoptotic process, PLS-inhibition; and reactivation of inhibited-PLS.

## CN(C)c1cccc2c(S(=O)(=O)NCCCCC(NS(=O)(=O)c3cccc4c(N(C)C)cccc34)C(=O)O)cccc12 (centres unmarked) [DDL]
Jurkat cells; EGTA/BAPTA-treated cells + Ca2+ 1 mM + calcium ionophore A23187 2 μM
  DDL uptake after re-activation of PLS: re-acquisition of a strong DDL uptake; also recorded: fast, selective and marked uptake
Jurkat cells; PLS-activated culture, anti-Fas Ab 0.1 μg/ml 3 h, DDL 1 μM
  DDL uptake (fluorescence) by apoptotic cells: Some of the cells manifest DDL binding; also recorded: Selective and fast uptake
Jurkat cells; apoptotic cells
  Intracellular localisation of DDL fluorescence: staining the cytoplasm but not the nucleus; also recorded: in the cytoplasm of those cells but not within the nuclei
Jurkat cells; apoptotic cells, Ca2+-deprivation: EGTA 1 mM + BAPTA 20 μM, 30 min, DDL 1 μM
  DDL uptake (fluorescence intensity) after PLS inhibition: marked reduction in the intensity of DDL-binding; also recorded: marked decrease in DDL uptake
Jurkat cells; same culture, DDL 1 μM
  DDL binding by intact cells not undergoing apoptosis: did not bind manifest significant DDL
HeLa S3 cells; Ca2+ re-administration
  DDL binding (fluorescence shift) after reactivation of PLS: restored this shift
HeLa S3 cells; Ca2+-deprivation
  DDL binding (fluorescence shift) after PLS inhibition: almost completely abolished this shift
HeLa S3 cells; PLS-activation by the apoptotic process
  DDL binding (fluorescence shift), PLS-activated apoptotic cells: distinct shift to higher fluorescence levels
